Results on eight compounds are retold here after patent publication US20160355530A1, “HEPATITIS C INHIBITORS AND USES THEREOF” (AbbVie Inc., priority 2010, published 2016).

Read-outs that look alike come from different tables or passages of the source.

The target in assay [1] is T1, HCV NS5B polymerase 1a-H77 (Hepatitis C virus genotype 1a, UniProt P27958).
T1 construct: six-histidine tag; made in house; host or cells: E. coli
Kind of assay: biochemical. Also on record: species or system HCV genotype 1a. The note with it: enzyme, strain 1a H77; read-out: HCV Polymerase Strain 1a H77 IC50. The gist of the method:
(§1)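 E. coli-expressed NS5B (residues 1-570, His-tagged) transcribed a 2.1 kb HCV 1b negative-strand 3′-end RNA template (5 nM) with 20 μM CTP, 20 μM ATP and 0.284 μM [3H]UTP for 3 h at 30° C. Spermine-precipitated RNA was filter-captured and counted by scintillation; IC50 from nonlinear regression.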

Assay [2] concerns the target T2, HCV NS5B polymerase 1a-H77-C316Y (Hepatitis C virus genotype 1a, UniProt P27958, C2736Y).
T2 construct: six-histidine tag; made in house; host or cells: E. coli
Kind of assay: biochemical. Also on record: species or system HCV genotype 1a. Put shortly:
as §1

In assay [3] the test system is HCV NS5B polymerase 1a-H77-C316Y. Kind of assay: biochemical. Set-up: species or system HCV genotype 1a. As to conditions: ratio of enzyme IC50s, 1a H77-C316Y / 1a H77. Put shortly:
as §1

Assay [4] has as its target T3, HCV NS5B polymerase 1b BK strain (Hepatitis C virus genotype 1b, UniProt P26663).
T3 construct: six-histidine tag; made in house; host or cells: E. coli
Kind of assay: HCV NS5B polymerase enzymatic inhibition assay, strain 1b BK. In kind it is biochemical. The note with it: enzyme, strain 1b BK; read-out: HCV Polymerase Strain 1b BK IC50. The gist of the method:
as §1

Assay [5] has as its system HCV 1a-H77 subgenomic replicon. Kind of assay: microbe, parasite or virus in culture. It counts as cell-based, HCV genotype 1a. As to conditions: Hepatitis C virus, stable replicon. In general terms: Replicon systems follow genome replication, usually without infectious particles.
The test system of assay [6] is HCV 1b-BB7 subgenomic replicon. Kind of assay: microbe, parasite or virus in culture. It counts as cell-based, HCV genotype 1b. As to conditions: Hepatitis C virus, stable replicon.
Assay [7] deals with chimeric replicon with 2a-J6CF-derived NS5B. Kind of assay: microbe, parasite or virus in culture. In kind it is cell-based, HCV genotype 2a. As to conditions: Hepatitis C virus, read-out: 2a chimera 5% FBS EC50.
In assay [8] the test system is chimeric replicon with genotype 2b NS5B. Kind of assay: microbe, parasite or virus in culture. The note with it: Hepatitis C virus, read-out: 2b chimera 5% FBS EC50. It counts as cell-based, HCV genotype 2b.
The subject of assay [9] is chimeric replicon with genotype 3a NS5B. Kind of assay: microbe, parasite or virus in culture. The note with it: Hepatitis C virus, read-out: 3a chimera 5% FBS EC50. In kind it is cell-based, HCV genotype 3a.
For assay [10], the system named is chimeric replicon with genotype 4a NS5B. Kind of assay: microbe, parasite or virus in culture. It counts as cell-based, HCV genotype 4a. The note with it: Hepatitis C virus, read-out: 4a chimera 5% FBS EC50.
The mark [11] stands for this setting: 5% FBS, absence of human plasma, read-out: Stable Replicon 1a H77 5% FBS EC50.
Where [12] appears, read: strain 1a H77, 5% FBS + 40% human plasma, read-out: 1a H77 5% FBS + 40% Human Plasma EC50.
Where [13] appears, read: strain 1a H77, 5% FBS, no human plasma, read-out: 1a H77 5% FBS EC50.
[14] abbreviates: strain 1a H77, 5% FBS, read-out: 1a H77 5% FBS EC50.
Where [15] appears, read: strain 1b BB7, 5% FBS + 40% human plasma, read-out: 1b BB7 5% FBS + 40% Human Plasma EC50.
Where [16] appears, read: strain 1b BB7, 5% FBS, no human plasma, read-out: 1b BB7 5% FBS EC50.
[17] abbreviates: strain 1b BB7, 5% FBS, read-out: 1b BB7 5% FBS EC50.

T2 sequence (P27958 2421-2990 C2736Y): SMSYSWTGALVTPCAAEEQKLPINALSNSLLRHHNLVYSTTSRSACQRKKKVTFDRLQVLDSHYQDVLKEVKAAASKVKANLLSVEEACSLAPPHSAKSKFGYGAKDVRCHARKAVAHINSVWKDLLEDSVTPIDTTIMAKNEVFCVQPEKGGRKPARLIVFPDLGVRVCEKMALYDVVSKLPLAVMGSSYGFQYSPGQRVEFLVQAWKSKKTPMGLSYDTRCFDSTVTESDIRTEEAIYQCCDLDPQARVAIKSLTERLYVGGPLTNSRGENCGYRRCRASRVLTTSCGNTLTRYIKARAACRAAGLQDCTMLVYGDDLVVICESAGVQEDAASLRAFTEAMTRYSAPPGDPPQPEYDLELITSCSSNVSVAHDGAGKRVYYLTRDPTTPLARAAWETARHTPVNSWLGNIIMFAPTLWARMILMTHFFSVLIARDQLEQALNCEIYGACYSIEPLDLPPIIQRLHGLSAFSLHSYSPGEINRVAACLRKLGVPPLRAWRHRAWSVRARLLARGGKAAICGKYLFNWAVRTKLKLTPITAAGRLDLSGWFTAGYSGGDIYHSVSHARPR
T3 sequence (P26663 2420-2989): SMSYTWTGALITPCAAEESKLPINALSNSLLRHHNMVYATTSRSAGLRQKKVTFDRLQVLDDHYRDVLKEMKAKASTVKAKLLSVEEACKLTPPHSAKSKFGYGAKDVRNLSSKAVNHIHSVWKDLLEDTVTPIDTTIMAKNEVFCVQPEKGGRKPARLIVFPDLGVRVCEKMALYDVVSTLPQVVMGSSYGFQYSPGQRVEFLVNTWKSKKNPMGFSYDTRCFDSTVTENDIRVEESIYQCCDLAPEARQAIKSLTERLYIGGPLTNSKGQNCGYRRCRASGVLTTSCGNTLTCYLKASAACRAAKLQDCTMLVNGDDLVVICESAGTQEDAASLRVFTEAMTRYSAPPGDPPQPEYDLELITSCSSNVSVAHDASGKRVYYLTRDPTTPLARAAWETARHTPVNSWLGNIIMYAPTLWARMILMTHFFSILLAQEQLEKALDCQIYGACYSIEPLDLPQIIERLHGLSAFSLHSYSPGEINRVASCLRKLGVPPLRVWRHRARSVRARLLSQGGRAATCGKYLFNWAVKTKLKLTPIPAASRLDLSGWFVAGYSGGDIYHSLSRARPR
T1 sequence (P27958 2421-2990): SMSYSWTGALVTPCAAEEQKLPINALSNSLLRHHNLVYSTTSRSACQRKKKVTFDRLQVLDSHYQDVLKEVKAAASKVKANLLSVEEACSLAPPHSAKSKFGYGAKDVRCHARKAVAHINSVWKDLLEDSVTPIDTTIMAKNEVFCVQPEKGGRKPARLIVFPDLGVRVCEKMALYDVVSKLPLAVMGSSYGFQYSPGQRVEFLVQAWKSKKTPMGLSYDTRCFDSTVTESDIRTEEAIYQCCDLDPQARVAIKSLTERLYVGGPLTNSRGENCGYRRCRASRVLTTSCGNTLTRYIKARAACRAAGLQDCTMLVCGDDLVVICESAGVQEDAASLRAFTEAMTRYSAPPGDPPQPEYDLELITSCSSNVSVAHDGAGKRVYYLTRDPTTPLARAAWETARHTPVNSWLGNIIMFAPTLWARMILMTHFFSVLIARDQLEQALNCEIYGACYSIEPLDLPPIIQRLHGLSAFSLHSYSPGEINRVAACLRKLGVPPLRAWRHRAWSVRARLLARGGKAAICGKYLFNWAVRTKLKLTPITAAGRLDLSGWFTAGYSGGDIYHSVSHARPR

On to `CS(=O)(=O)N(CCCn1cccc1)c1cc2oc(-c3ccc(F)cc3)c(C3=NOCCN3)c2cc1C1CC1` [Example 119, N-[5-cyclopropyl-3-(5,6-dihydro-4H-1,2,4-oxadiazin-3-yl)-2-(4-fluorophenyl)-1-benzofuran-6-yl]-N-[3-(1H-pyrrol-1-yl)propyl]methanesulfonamide], for which the IC50 in assay [1] was 7 nM; in [2], 41 nM; in assay [4], 38 nM. Moreover, in assay [3], the “C316Y/1a Fold Resistance” value is 6 fold. Moreover, the EC50 in [5] (setting [11]) is 19.4 nM; in assay [5] (setting [12]), 247 nM; in assay [5] (setting [13]), 19.4 nM; in [5] (setting [14]) it was 19.4 nM; in [6] (setting [15]), 129 nM; in [6] (setting [16]), 17 nM. The EC50 in assay [6] (setting [17]) stood at 17 nM; in assay [7], 79 nM; in assay [8] it was 189 nM; in [9], 30 nM; in assay [10], 142 nM.
Consider `CC(C)=CCN(c1cc2oc(-c3ccc(F)cc3)c(-c3ncc[nH]3)c2cc1C1CC1)S(C)(=O)=O` [Example 54, N-[5-cyclopropyl-2-(4-fluorophenyl)-3-(1H-imidazol-2-yl)-1-benzofuran-6-yl]-N-(3-methylbut-2-en-1-yl)methanesulfonamide], for which the IC50 stood at 4.5 nM in assay [1], 192 nM in assay [2] and 293 nM in [4]. Further, the “C316Y/1a Fold Resistance” value in assay [3] is 43 fold. Besides, the EC50 in assay [5] (setting [11]) was 89 nM; in assay [5] (setting [12]), 935 nM; in assay [5] (setting [13]) it was 89 nM; in assay [5] (setting [14]), 89 nM; in [6] (setting [15]), 734 nM; in assay [6] (setting [16]), 64 nM. Besides, the EC50 in [6] (setting [17]) was 64 nM; in assay [7] it was 267 nM; in assay [8] it was 601 nM; in [9], 51 nM; in assay [10] it was 635 nM.
For `CS(=O)(=O)N(CCCc1noc(=S)[nH]1)c1cc2oc(-c3ccc(F)cc3)c(C3=NOCCN3)c2cc1C1CC1` [Example 183, N-[5-cyclopropyl-3-(5,6-dihydro-4H-1,2,4-oxadiazin-3-yl)-2-(4-fluorophenyl)-1-benzofuran-6-yl]-N-[3-(5-thioxo-4,5-dihydro-1,2,4-oxadiazol-3-yl)propyl]methanesulfonamide], the figures for the IC50 in assay [1], in assay [2] and in assay [4] were 6 nM, 22 nM and 39 nM, respectively. Also, the “C316Y/1a Fold Resistance” value in assay [3] is listed as 4 fold. Also, the EC50 in [5] (setting [11]) turned out to be 104 nM; in [5] (setting [12]), 2060 nM; in assay [5] (setting [13]), 104 nM; in assay [5] (setting [14]), 104 nM; in assay [6] (setting [15]) it was 2200 nM; in [6] (setting [16]) it was 88 nM. The EC50 in assay [6] (setting [17]) was 88 nM; in assay [7], 1000 nM; in assay [8], 1000 nM; in assay [9] it was 306 nM; in [10] it was over 1000 nM.
For `Cn1cnc2ccc(-c3ncc(CN(c4ccc5c(-c6ncc[nH]6)c(-c6ccccc6)oc5c4)S(C)(=O)=O)s3)cc21` [Example 30, N-[3-(1H-imidazol-2-yl)-2-phenyl-1-benzofuran-6-yl]-N-{[2-(1-methyl-1H-benzimidazol-6-yl)-1,3-thiazol-5-yl]methyl}methanesulfonamide], the IC50 in [1] amounted to 5 nM; in assay [2], 19 nM; in [4], 12 nM. Also, in assay [3], the “C316Y/1a Fold Resistance” value is reported as 4 fold. Besides, the EC50 in [5] (setting [11]) worked out at 108 nM; in [5] (setting [12]), 10000 nM; in assay [5] (setting [13]), 108 nM; in assay [5] (setting [14]), 108 nM; in assay [6] (setting [15]), 1320 nM; in assay [6] (setting [16]), 4 nM. Moreover, the EC50 in assay [6] (setting [17]) is 4 nM; in assay [7] it was 40.7 nM; in assay [8], 109 nM; in [9], 2.8 nM; in assay [10] it was 150 nM.
In the case of `CS(=O)(=O)N(CCCS(=O)(=O)N1CCOCC1)c1cc2oc(-c3ccc(F)cc3)c(-c3ncc[nH]3)c2cc1C1CC1` [Example 79, N-[5-cyclopropyl-2-(4-fluorophenyl)-3-(1H-imidazol-2-yl)-1-benzofuran-6-yl]-N-[3-(morpholin-4-ylsulfonyl)propyl]methanesulfonamide], the IC50 in assay [1] was determined as 5.5 nM; in [2], 141 nM; in assay [4], 20 nM. In addition, in [3], the “C316Y/1a Fold Resistance” value is 26 fold. The EC50 was 14.7 nM in [5] (setting [11]); 117 nM in assay [5] (setting [12]); 14.7 nM in assay [5] (setting [13]); 14.7 nM in [5] (setting [14]); 62 nM in [6] (setting [15]); 6.9 nM in assay [6] (setting [16]). Also, the EC50 was found to be 6.9 nM in assay [6] (setting [17]); 90.6 nM in assay [7]; 99.3 nM in assay [8]; 11.6 nM in assay [9]; 72.8 nM in [10].
As for `CS(=O)(=O)N(CCC/C(N)=N/O)c1cc2oc(-c3ccc(F)cc3)c(-c3ncc[nH]3)c2cc1C1CC1` [Example 176, (1Z)-4-{[5-cyclopropyl-2-(4-fluorophenyl)-3-(1H-imidazol-2-yl)-1-benzofuran-6-yl](methylsulfonyl)amino}-N′-hydroxybutanimidamide], the IC50 in [1] was 5 nM; in assay [2] it was 134 nM; in assay [4] it was 33 nM. Besides, the “C316Y/1a Fold Resistance” value in [3] stood at 27 fold. The EC50 worked out at 36.5 nM in assay [5] (setting [11]); 133 nM in assay [5] (setting [12]); 36.5 nM in assay [5] (setting [13]); 36.5 nM in [5] (setting [14]); 80 nM in [6] (setting [15]); 20 nM in assay [6] (setting [16]). Also, the EC50 was 20 nM in assay [6] (setting [17]); 146 nM in [7]; 155 nM in assay [8]; 12 nM in [9]; 159 nM in [10].
On to `Cn1ccc2cc(-c3ncc(CN(c4ccc5c(-c6ncc[nH]6)c(-c6ccccc6)oc5c4)S(C)(=O)=O)s3)ccc21` [Example 25, N-[3-(1H-imidazol-2-yl)-2-phenyl-1-benzofuran-6-yl]-N-{[2-(1-methyl-1H-indol-5-yl)-1,3-thiazol-5-yl]methyl}methanesulfonamide], for which the IC50 in assay [1] came to 6.3 nM; in [2], 43 nM; in assay [4], 15 nM. Further, the “C316Y/1a Fold Resistance” value in assay [3] was 7 fold. Further, the EC50 in assay [5] (setting [11]) was 266 nM; in [5] (setting [12]), 10000 nM; in assay [5] (setting [13]), 266 nM; in assay [5] (setting [14]) it was 266 nM; in [6] (setting [15]), 10000 nM; in assay [6] (setting [16]) it was 8.2 nM. Also, the EC50 amounted to 8.2 nM in assay [6] (setting [17]); 108 nM in assay [7]; 382 nM in assay [8]; 10.7 nM in assay [9]; 452 nM in [10].
Consider `CS(=O)(=O)N(Cc1cnc(Br)s1)c1cc2oc(-c3ccc(F)cc3)c(-c3ncc[nH]3)c2cc1C1CC1` [Example 67, N-[(2-bromo-1,3-thiazol-5-yl)methyl]-N-[5-cyclopropyl-2-(4-fluorophenyl)-3-(1H-imidazol-2-yl)-1-benzofuran-6-yl]methanesulfonamide], for which the IC50 in assay [1] stood at 3.5 nM; in assay [2], 234 nM; in assay [4], 12 nM. Further, in assay [3], the “C316Y/1a Fold Resistance” value was found to be 68 fold. The EC50 amounted to 54.3 nM in [5] (setting [11]); 1010 nM in assay [5] (setting [12]); 54.3 nM in [5] (setting [13]); 54.3 nM in [5] (setting [14]); 256 nM in [6] (setting [15]); 13.9 nM in [6] (setting [16]). For the same compound, the EC50 in [6] (setting [17]) came to 13.9 nM; in [7] it was 87.3 nM; in assay [8], 77.2 nM; in assay [9], 7.9 nM; in assay [10], 232 nM.

The term IC50 denotes the concentration that inhibits the measured activity by half. As usually defined, the EC50 is the midpoint of the concentration-response curve.
